Assays:
crabgrass, large = test: Test A pre-/postemergence herbicide test; format: in vivo, Digitaria sanguinalis
Summary of the method: (§1)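 Seeds in loam–sand blend received preemergence directed soil spray; separately, plants 2–10 cm at one- to two-leaf stage received postemergence spray, both with test chemicals in non-phytotoxic solvent with surfactant. After ~10 days in greenhouse, injury rated visually against untreated controls, 0 (no effect) to 100 (complete control).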

barnyardgrass [1] = test: Test B flooded paddy test; format: in vivo, Echinochloa crus-galli; conditions: Flood, scale of 0 to 100 where 0 is no effect and 100 is complete control
Summary of the method: (§2)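 Plants grown to 2-leaf stage; pots flooded 3 cm above soil and compound applied directly into paddy water, depth held throughout. Visual rating against untreated controls after 13 to 15 days in greenhouse, 0 (no effect) to 100 (complete control).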

velvetleaf = test: Test A pre-/postemergence herbicide test; format: in vivo, Abutilon theophrasti
Summary of the method: as §1

giant foxtail = test: Test A pre-/postemergence herbicide test; format: in vivo, Setaria faberii
Summary of the method: as §1

wheat = test: Test A pre-/postemergence herbicide test; format: in vivo, Triticum aestivum
Summary of the method: as §1

pigweed = test: Test A pre-/postemergence herbicide test; format: in vivo, Amaranthus retroflexus
Summary of the method: as §1

sedge, umbrella = test: Test B flooded paddy test; format: in vivo, Cyperus difformis; conditions: Flood, scale of 0 to 100 where 0 is no effect and 100 is complete control
Summary of the method: as §2

corn = test: Test A pre-/postemergence herbicide test; format: in vivo, Zea mays
Summary of the method: as §1

ducksalad = test: Test B flooded paddy test; format: in vivo, Heteranthera limosa; conditions: Flood, scale of 0 to 100 where 0 is no effect and 100 is complete control
Summary of the method: as §2

rice = test: Test B flooded paddy test; format: in vivo, Oryza sativa; conditions: Flood, scale of 0 to 100 where 0 is no effect and 100 is complete control
Summary of the method: as §2

morningglory = test: Test A pre-/postemergence herbicide test; format: in vivo, Ipomoea spp.
Summary of the method: as §1

barnyardgrass [2] = test: Test A pre-/postemergence herbicide test; format: in vivo, Echinochloa crus-galli
Summary of the method: as §1

[3] = 125 g ai/ha, visual rating, 0 to 100 scale, 0 no effect, 100 complete control, approximately 10 days, preemergence
[4] = Postemergence, 125 g ai/ha, 0 to 100 scale, 0 is no effect, 100 is complete control
[5] = preemergence, 500 g ai/ha, 0 to 100 scale, 0 is no effect and 100 is complete control
[6] = Postemergence, 500 g ai/ha, 0 to 100 scale (0 no effect, 100 complete control)
[7] = Preemergence, 125 g ai/ha, 0 to 100 scale where 0 is no effect and 100 is complete control

Structure (SMILES) | Plant response rating, Crabgrass, Large (crabgrass, large; [4]) | Plant response rating, Crabgrass, Large (crabgrass, large; [5]) | Plant response rating, Barnyardgrass (barnyardgrass [1]; 1000 g ai/ha) | Plant response rating, Velvetleaf (velvetleaf; [4]) | Plant response rating, Velvetleaf (velvetleaf; [5]) | Plant response rating, Foxtail, Giant (giant foxtail; [4]) | Plant response rating, Foxtail, Giant (giant foxtail; [5]) | Plant response rating, Wheat (wheat; [4]) | Plant response rating, Wheat (wheat; [5]) | Plant response rating, Pigweed (pigweed; [4]) | Plant response rating, Pigweed (pigweed; [5]) | Plant response rating, Sedge, Umbrella (sedge, umbrella; 1000 g ai/ha) | Plant response rating, Corn (corn; [4]) | Plant response rating, Corn (corn; [5]) | Plant response rating, Ducksalad (ducksalad; 1000 g ai/ha) | Plant response rating, Rice (rice; 1000 g ai/ha) | Plant response rating, Morningglory (morningglory; [4]) | Plant response rating, Morningglory (morningglory; [5]) | Plant response rating, Barnyardgrass (barnyardgrass [2]; [4]) | Plant response rating, Barnyardgrass (barnyardgrass [2]; [5]) | also measured
COc1ccc(C2CNC(=O)C2C(=O)Nc2ccccc2F)cc1F (racemic) [Compound 197] | 50 | 100 | 30 | 0 | 0 | 0 | 80 | 0 | 0 | 0 | 0 | 0 | 0 | 0 | 75 | 10 | 0 | 0 | 30 | 70 | Plant response rating, Crabgrass, Large (crabgrass, large; [3]): 80; Crabgrass, Large plant response rating (0 to 100 scale, 0 is no effect, 100 is complete control) (crabgrass, large; Postemergence, 500 g ai/ha): 70; Plant response rating, Barnyardgrass (barnyardgrass [1]; 250 g ai/ha): 0; Plant response rating, Velvetleaf (velvetleaf; [3]): 0; Velvetleaf plant response rating (0 to 100 scale, 0 is no effect, 100 is complete control) (velvetleaf; Postemergence, 500 g ai/ha): 0; Plant response rating, Foxtail, Giant (giant foxtail; [3]): 30; Foxtail, Giant plant response rating (0 to 100 scale, 0 is no effect, 100 is complete control) (giant foxtail; Postemergence, 500 g ai/ha): 40; Plant response rating, Wheat (wheat; [3]): 0; Wheat plant response rating (0 to 100 scale, 0 is no effect, 100 is complete control) (wheat; Postemergence, 500 g ai/ha): 0; Plant response rating, Pigweed (pigweed; [3]): 0; Pigweed plant response rating (0 to 100 scale, 0 is no effect, 100 is complete control) (pigweed; Postemergence, 500 g ai/ha): 0; Plant response rating, Sedge, Umbrella (sedge, umbrella; 250 g ai/ha): 0; Plant response rating, Corn (corn; [3]): 0; Corn plant response rating (0 to 100 scale, 0 is no effect, 100 is complete control) (corn; Postemergence, 500 g ai/ha): 0; Plant response rating, Ducksalad (ducksalad; 250 g ai/ha): 0; Plant response rating, Rice (rice; 250 g ai/ha): 0; Plant response rating, Morningglory (morningglory; [3]): 0; Morningglory plant response rating (0 to 100 scale, 0 is no effect, 100 is complete control) (morningglory; Postemergence, 500 g ai/ha): 10; Plant response rating, Barnyardgrass (barnyardgrass [2]; [3]): 0; Barnyardgrass plant response rating (0 to 100 scale, 0 is no effect, 100 is complete control) (barnyardgrass [2]; Postemergence, 500 g ai/ha): 70
O=C1NCC(c2ccc(C(F)(F)F)c(F)c2)C1C(=O)Nc1ccccc1C(F)(F)F (racemic) [Compound 248] | 50 | 90 | 55 | 0 | 0 | 30 | 90 | 0 | 0 | 0 | 0 | 0 | 0 | 0 | 95 | 0 | 0 | 0 | 20 | 80 | Plant response rating, Crabgrass, Large (crabgrass, large; [6]): 70; Plant response rating, Crabgrass, Large (crabgrass, large; [7]): 90; Plant response rating, Velvetleaf (velvetleaf; [6]): 0; Plant response rating, Velvetleaf (velvetleaf; [7]): 0; Plant response rating, Foxtail, Giant (giant foxtail; [6]): 50; Plant response rating, Foxtail, Giant (giant foxtail; [7]): 80; Plant response rating, Wheat (wheat; [6]): 0; Plant response rating, Wheat (wheat; [7]): 0; Plant response rating, Pigweed (pigweed; [6]): 0; Plant response rating, Pigweed (pigweed; [7]): 0; Plant response rating, Corn (corn; [6]): 20; Plant response rating, Corn (corn; [7]): 0; Plant response rating, Morningglory (morningglory; [6]): 0; Plant response rating, Morningglory (morningglory; [7]): 0; Plant response rating, Barnyardgrass (barnyardgrass [2]; [6]): 50; Plant response rating, Barnyardgrass (barnyardgrass [2]; [7]): 30
O=C1NCC(c2ccc(C(F)(F)F)c(Cl)c2)C1C(=O)Nc1ccccc1F (racemic) [Compound 249] | 0 | 90 | 55 | 0 | 0 | 20 | 90 | 0 | 0 | 0 | 0 | 40 | 0 | 0 | 85 | 15 | 0 | 0 | 30 | 80 | Plant response rating, Crabgrass, Large (crabgrass, large; [6]): 40; Plant response rating, Crabgrass, Large (crabgrass, large; [7]): 80; Plant response rating, Velvetleaf (velvetleaf; [6]): 0; Plant response rating, Velvetleaf (velvetleaf; [7]): 0; Plant response rating, Foxtail, Giant (giant foxtail; [6]): 40; Plant response rating, Foxtail, Giant (giant foxtail; [7]): 50; Plant response rating, Wheat (wheat; [6]): 0; Plant response rating, Wheat (wheat; [7]): 0; Plant response rating, Pigweed (pigweed; [6]): 0; Plant response rating, Pigweed (pigweed; [7]): 0; Plant response rating, Corn (corn; [6]): 0; Plant response rating, Corn (corn; [7]): 0; Plant response rating, Morningglory (morningglory; [6]): 0; Plant response rating, Morningglory (morningglory; [7]): 0; Plant response rating, Barnyardgrass (barnyardgrass [2]; [6]): 50; Plant response rating, Barnyardgrass (barnyardgrass [2]; [7]): 50
O=C1NCC(c2ccc(C(F)(F)F)c(Cl)c2)C1C(=O)Nc1cccc(F)c1F (racemic) [Compound 250] | 0 | 90 | 0 | 0 | 0 | 30 | 80 | 0 | 0 | 0 | 0 | 0 | 0 | 0 | 80 | 0 | 0 | 0 | 30 | 80 | Plant response rating, Crabgrass, Large (crabgrass, large; [6]): 40; Plant response rating, Crabgrass, Large (crabgrass, large; [7]): 80; Plant response rating, Velvetleaf (velvetleaf; [6]): 0; Plant response rating, Velvetleaf (velvetleaf; [7]): 0; Plant response rating, Foxtail, Giant (giant foxtail; [6]): 50; Plant response rating, Foxtail, Giant (giant foxtail; [7]): 50; Plant response rating, Wheat (wheat; [6]): 0; Plant response rating, Wheat (wheat; [7]): 0; Plant response rating, Pigweed (pigweed; [6]): 0; Plant response rating, Pigweed (pigweed; [7]): 0; Plant response rating, Corn (corn; [6]): 0; Plant response rating, Corn (corn; [7]): 0; Plant response rating, Morningglory (morningglory; [6]): 0; Plant response rating, Morningglory (morningglory; [7]): 0; Plant response rating, Barnyardgrass (barnyardgrass [2]; [6]): 50; Plant response rating, Barnyardgrass (barnyardgrass [2]; [7]): 20
